ChEMBL document CHEMBL2163297, “Discovery of novel PI3-kinase δ specific inhibitors for the treatment of rheumatoid arthritis: taming CYP3A4 time-dependent inhibition” (J Med Chem, 2012)

Legend:
[1] = Selectivity ratio of IC50 for PI3Kbeta to IC50 for PI3Kdelta
[2] = Selectivity ratio of IC50 for PI3Kalpha to IC50 for PI3Kdelta
[3] = molecular target: T1, Phosphatidylinositol 4,5-bisphosphate 3-kinase catalytic subunit delta isoform (Homo sapiens, UniProt O00329)
T1 sequence (O00329 whole entry): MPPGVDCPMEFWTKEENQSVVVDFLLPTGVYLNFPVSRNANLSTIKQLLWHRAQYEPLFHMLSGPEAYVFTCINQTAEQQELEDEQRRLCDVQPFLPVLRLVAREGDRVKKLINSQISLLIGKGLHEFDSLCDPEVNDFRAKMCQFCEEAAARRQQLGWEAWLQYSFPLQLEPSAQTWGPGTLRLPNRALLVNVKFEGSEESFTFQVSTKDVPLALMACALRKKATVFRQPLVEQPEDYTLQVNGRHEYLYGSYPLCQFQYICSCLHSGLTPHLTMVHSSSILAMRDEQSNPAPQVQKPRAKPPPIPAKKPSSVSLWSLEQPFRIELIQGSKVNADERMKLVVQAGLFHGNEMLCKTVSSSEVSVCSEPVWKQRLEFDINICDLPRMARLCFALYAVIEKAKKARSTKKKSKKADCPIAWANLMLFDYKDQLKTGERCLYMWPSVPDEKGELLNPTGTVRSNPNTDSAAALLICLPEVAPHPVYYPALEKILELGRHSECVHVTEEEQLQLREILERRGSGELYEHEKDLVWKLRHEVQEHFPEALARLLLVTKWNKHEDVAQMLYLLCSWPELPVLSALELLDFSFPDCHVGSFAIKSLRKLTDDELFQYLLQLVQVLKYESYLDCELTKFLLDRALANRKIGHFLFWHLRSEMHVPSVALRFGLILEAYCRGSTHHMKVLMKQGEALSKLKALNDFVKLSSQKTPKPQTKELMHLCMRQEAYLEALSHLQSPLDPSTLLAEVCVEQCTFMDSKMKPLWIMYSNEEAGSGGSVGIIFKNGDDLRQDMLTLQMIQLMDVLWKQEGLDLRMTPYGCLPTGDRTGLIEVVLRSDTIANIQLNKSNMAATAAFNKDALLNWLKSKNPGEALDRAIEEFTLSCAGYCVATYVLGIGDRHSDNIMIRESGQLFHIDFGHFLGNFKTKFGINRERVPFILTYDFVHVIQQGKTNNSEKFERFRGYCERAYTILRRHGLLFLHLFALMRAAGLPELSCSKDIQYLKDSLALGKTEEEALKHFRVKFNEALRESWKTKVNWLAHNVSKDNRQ
Description: Binding affinity to PI3Kdelta after 30 mins by competitive fluorescence polarization assay

[4] = Selectivity ratio of IC50 for PI3Kgamma to IC50 for PI3Kdelta
[5] = molecular target: T2, Cytochrome P450 3A4 (Homo sapiens, UniProt P08684); test: (§1) Time dependent inhibition of CYP3A4 in human liver microsomes preincubated for 30 mins; assay type: ADME, Microsome
[6] = molecular target: T1, Phosphatidylinositol 4,5-bisphosphate 3-kinase catalytic subunit delta isoform; test: Inhibition of human PI3Kdelta-mediated AKT phosphorylation at S473 in Ri-1 cells after 30 mins by electrochemiluminescence assay in presence of human serum albumin and alpha1 acid glycoprotein; assay type: cell-based
[7] = molecular target: T2, Cytochrome P450 3A4; test: Inhibition of CYP3A4 in human liver microsomes; assay type: ADME, Microsome; settings: TDE = time-dependent effect
[8] = molecular target: T3, Phosphatidylinositol 4,5-bisphosphate 3-kinase catalytic subunit delta isoform (Homo sapiens) (UniProt O00329); test: Ratio of IC50 for human PI3Kdelta-mediated AKT phosphorylation at S473 in Ri-1 cells to IC50 for PI3Kdelta; assay type: cell-based
T3 sequence (whole entry): T1 sequence (O00329 whole entry)

[9] = system: Liver microsomes; test: Metabolic stability in human liver microsomes; assay type: ADME, Microsome
[10] = Oral bioavailability in […] Wistar rat at 2 mg/kg; assay type: ADME, organism-based; settings: in vivo
[11] = Volume of distribution at steady state in […] Wistar rat at 0.5 mg/kg, iv and 2 mg/kg, po; assay type: ADME, organism-based; settings: in vivo, read-out: Vdss
[12] = molecular target: CYP3A4 (Homo sapiens, UniProt P08684); test: as §1; assay type: ADME, Microsome; settings: human, liver microsomes
[13] = Clearance in […] Wistar rat at 0.5 mg/kg, iv and 2 mg/kg, po; assay type: ADME, organism-based; settings: in vivo
[14] = system: Liver microsomes; test: Metabolic stability in rat liver microsomes; assay type: ADME, Microsome

T2 sequence (P08684 whole entry, canonical isoform): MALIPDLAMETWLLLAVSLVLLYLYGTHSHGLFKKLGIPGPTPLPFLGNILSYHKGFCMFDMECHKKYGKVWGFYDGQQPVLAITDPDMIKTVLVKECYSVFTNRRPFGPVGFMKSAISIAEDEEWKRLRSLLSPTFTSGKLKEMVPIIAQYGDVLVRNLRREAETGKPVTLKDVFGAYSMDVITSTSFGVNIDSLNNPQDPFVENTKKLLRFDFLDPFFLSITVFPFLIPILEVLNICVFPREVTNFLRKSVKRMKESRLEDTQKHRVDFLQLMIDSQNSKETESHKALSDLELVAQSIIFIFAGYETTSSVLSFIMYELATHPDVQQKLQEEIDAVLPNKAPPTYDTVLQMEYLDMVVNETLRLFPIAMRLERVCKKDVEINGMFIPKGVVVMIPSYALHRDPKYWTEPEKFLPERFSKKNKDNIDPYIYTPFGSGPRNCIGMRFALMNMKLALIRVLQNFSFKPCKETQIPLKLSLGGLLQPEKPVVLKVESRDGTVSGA
Sequence of CYP3A4 (P08684 whole entry): as the sequence (P08684 whole entry, canonical isoform) above

Row | Compound | Ratio IC50 [1] | Ratio IC50 [2] | IC50 [3] [nM] | Ratio IC50 [4] | IC50 [5] [nM] | IC50 [6] [nM] | further results
1 | Cc1ncc2ccccc2c1-c1nc(N2CCOCC2)c2sc(CN3CCC(N(C)C)CC3)cc2n1 | – | 144 | 29 | – | – | 2000 | –
2 | CN(C)C1CCN(Cc2cc3nc(-c4cccc5nccn45)nc(N4CCOCC4)c3s2)CC1 | – | 21 | 27 | – | – | 180 | –
3 | CC(C)(C(N)=O)N1CCN(Cc2cc3nc(-c4ccnc5[nH]ccc45)nc(N4CCOCC4)c3s2)CC1 | 103 | 30 | 2.3 | 81 | < 100 | – | –
4 | CC(C)(C(N)=O)N1CCN(Cc2cc3nc(-c4nccc5[nH]ccc45)nc(N4CCOCC4)c3s2)CC1 | 46 | 86 | 3.5 | 2830 | > 10000 | – | –
5 | CC(C)(C(N)=O)N1CCN(Cc2cc3nc(-c4cncc5[nH]ccc45)nc(N4CCOCC4)c3s2)CC1 | 40 | 41 | 0.67 | 243 | 3200 | – | –
6 | CC(C)(C(N)=O)N1CCN(Cc2cc3nc(-c4c(F)cc(F)c5[nH]ccc45)nc(N4CCOCC4)c3s2)CC1 | 137 | 96 | 6 | 350 | 600 | – | –
7 | CN(C)C1CCN(Cc2cc3nc(-c4cccc5c4CC(=O)N5)nc(N4CCOCC4)c3s2)CC1 | – | 8 | 41 | – | – | 3400 | –
8 | CC(C)(C(N)=O)N1CCN(Cc2cc3nc(-c4cc(C#N)cc5[nH]ccc45)nc(N4CCOCC4)c3s2)CC1 | 275 | 208 | 3.2 | 691 | 1200 | – | –
9 | CC(C)(C(N)=O)N1CCN(Cc2cc3nc(-c4cc(F)cc5[nH]ccc45)nc(N4CCOCC4)c3s2)CC1 | 80 | 77 | 0.48 | 566 | 510 | – | –
10 | CN(C)C1CCN(Cc2cc3nc(-c4n[nH]c5ccccc45)nc(N4CCOCC4)c3s2)CC1 | – | 65 | 9.8 | – | – | – | –
11 | Cc1cccc(-c2nc(N3CCOCC3)c3sc(CN4CCC(N(C)C)CC4)cc3n2)c1 | – | 98 | 12 | – | – | 1300 | –
12 | Fc1ccc2[nH]ccc2c1-c1nc(N2CCOCC2)c2sc(CN3CCN4CCOC[C@H]4C3)cc2n1 | 69 | 42 | 9 | 806 | 7000 | – | Stability [9]: 68.7%; bioavailability [10]: 75.5%; Vd [11]: 2.76 L/kg; Ki [5]: 78000 nM; kinact at 30 min [12]: 0.0008 s⁻¹; clearance [13]: 25.2 mL/min/kg; Stability [14]: 72.5%
13 | CC(C)(C(N)=O)N1CCN(Cc2cc3nc(-c4cccc5[nH]ccc45)nc(N4CCOCC4)c3s2)CC1 | 104 | 129 | 1.8 | 1440 | – | – | inhibition (INH) [7]: tde
14 | CN(C)C1CCN(Cc2cc3nc(-c4c(F)ccc5[nH]ccc45)nc(N4CCOCC4)c3s2)CC1 | – | 226 | 1.8 | – | 9100 | 29 | Ratio IC50 [8]: 16
15 | Cc1cc2c(-c3nc(N4CCOCC4)c4sc(CN5CCN(C(C)(C)C(N)=O)CC5)cc4n3)cccc2[nH]1 | 101 | 122 | 1.1 | 715 | < 100 | – | –
16 | CN(C)C1CCN(Cc2cc3nc(-c4c[nH]c5ccccc45)nc(N4CCOCC4)c3s2)CC1 | – | 88 | 5.6 | – | – | – | –

Continued, in another order:

Row | Ratio IC50 [1] | Ratio IC50 [2] | IC50 [3] [nM] | Ratio IC50 [4] | IC50 [5] [nM] | IC50 [6] [nM] | Compound | further results
17 | 75 | 18 | 134 | 75 | > 10000 | – | Cn1ccc2c(-c3nc(N4CCOCC4)c4sc(CN5CCN(C(C)(C)C(N)=O)CC5)cc4n3)cccc21 | –
18 | 815 | 50 | 2.3 | 112 | > 10000 | 102 | CCc1nc2ccccc2n1-c1nc(N2CCOCC2)c2sc(CN3CCN(C4COC4)CC3(C)C)cc2n1 | –
19 | – | 54 | 10 | – | – | 420 | CN(C)C1CCN(Cc2cc3nc(-n4ccc5ccccc54)nc(N4CCOCC4)c3s2)CC1 | –
20 | 54 | 9 | 3.1 | 153 | – | – | CC(C)(C(N)=O)N1CCN(Cc2cc3nc(-c4cccc5[nH]ncc45)nc(N4CCOCC4)c3s2)CC1 | –
21 | 25 | 22 | 1.7 | 268 | – | – | CS(=O)(=O)N1CCN(Cc2cc3nc(-c4cccc5[nH]ccc45)nc(N4CCOCC4)c3s2)CC1 | inhibition (INH) [7]: tde
22 | 12 | 2 | 4.3 | 14 | > 10000 | 79 | CCc1nc2ccccc2n1-c1nc(N2CCOCC2)c2sc(CN3CCN(S(C)(=O)=O)CC3)cc2n1 | –
23 | – | 14 | 23 | – | – | 970 | CN(C)C1CCN(Cc2cc3nc(-n4cnc5ccccc54)nc(N4CCOCC4)c3s2)CC1 | Ratio IC50 [8]: 42
24 | – | 39 | 16 | – | – | 3200 | CN(C)C1CCN(Cc2cc3nc(-n4ncc5ccccc54)nc(N4CCOCC4)c3s2)CC1 | –
25 | 111 | 17 | 4.3 | 134 | > 10000 | – | Cc1nc2ccccc2n1-c1nc(N2CCOCC2)c2sc(CN3CCN(C(C)(C)C(N)=O)CC3)cc2n1 | –
26 | 252 | 29 | 2.7 | 233 | > 10000 | 374 | Cc1nc2ccccc2n1-c1nc(N2CCOCC2)c2sc(CN3CCC(N(C)C)CC3)cc2n1 | –
27 | – | – | – | – | > 10000 | – | CCc1nc2ccccc2n1-c1nc(N2CCOCC2)c2sc(CN3CCC(C(C)(C)O)CC3)cc2n1 | –
